Data taken from ChEMBL document CHEMBL5715954, “Silencing c-Myc translation as a therapeutic strategy through targeting PI3Kδ and CK1ε in hematological malignancies” (Blood, 2017).

Experiments:
Set-up in all cases: scale not given: the % may be the effect or the level left
[1] = target: T1, cAMP-dependent protein kinase catalytic subunit PRKX (Homo sapiens) (UniProt P51817); experiment: Inhibition of human PRKX assessed as enzyme activity at 1 uM using LRRASLG as substrate preincubated for 20 mins followed by [gamma-33P]-ATP addition and measured after 120 mins by radiometric Hot-SpotSM Kinase assay relative to control
T1 sequence (whole entry): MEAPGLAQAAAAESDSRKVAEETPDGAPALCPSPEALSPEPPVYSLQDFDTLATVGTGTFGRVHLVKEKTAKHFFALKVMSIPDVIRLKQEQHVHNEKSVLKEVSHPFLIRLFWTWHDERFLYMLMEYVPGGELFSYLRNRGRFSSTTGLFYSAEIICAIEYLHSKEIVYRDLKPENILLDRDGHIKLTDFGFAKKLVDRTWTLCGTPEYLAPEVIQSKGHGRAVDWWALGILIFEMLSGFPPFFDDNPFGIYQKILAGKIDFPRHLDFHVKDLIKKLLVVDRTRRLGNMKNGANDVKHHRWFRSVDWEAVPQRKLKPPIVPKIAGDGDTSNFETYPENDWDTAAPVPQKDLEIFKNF

[2] = target: T2, Serine/threonine-protein kinase LATS1 (Homo sapiens) (UniProt O95835); experiment: Inhibition of human LATS1 assessed as enzyme activity at 1 uM using KKRNRRLSVA as substrate preincubated for 20 mins followed by [gamma-33P]-ATP addition and measured after 120 mins by radiometric Hot-SpotSM Kinase assay relative to control
T2 sequence (whole entry): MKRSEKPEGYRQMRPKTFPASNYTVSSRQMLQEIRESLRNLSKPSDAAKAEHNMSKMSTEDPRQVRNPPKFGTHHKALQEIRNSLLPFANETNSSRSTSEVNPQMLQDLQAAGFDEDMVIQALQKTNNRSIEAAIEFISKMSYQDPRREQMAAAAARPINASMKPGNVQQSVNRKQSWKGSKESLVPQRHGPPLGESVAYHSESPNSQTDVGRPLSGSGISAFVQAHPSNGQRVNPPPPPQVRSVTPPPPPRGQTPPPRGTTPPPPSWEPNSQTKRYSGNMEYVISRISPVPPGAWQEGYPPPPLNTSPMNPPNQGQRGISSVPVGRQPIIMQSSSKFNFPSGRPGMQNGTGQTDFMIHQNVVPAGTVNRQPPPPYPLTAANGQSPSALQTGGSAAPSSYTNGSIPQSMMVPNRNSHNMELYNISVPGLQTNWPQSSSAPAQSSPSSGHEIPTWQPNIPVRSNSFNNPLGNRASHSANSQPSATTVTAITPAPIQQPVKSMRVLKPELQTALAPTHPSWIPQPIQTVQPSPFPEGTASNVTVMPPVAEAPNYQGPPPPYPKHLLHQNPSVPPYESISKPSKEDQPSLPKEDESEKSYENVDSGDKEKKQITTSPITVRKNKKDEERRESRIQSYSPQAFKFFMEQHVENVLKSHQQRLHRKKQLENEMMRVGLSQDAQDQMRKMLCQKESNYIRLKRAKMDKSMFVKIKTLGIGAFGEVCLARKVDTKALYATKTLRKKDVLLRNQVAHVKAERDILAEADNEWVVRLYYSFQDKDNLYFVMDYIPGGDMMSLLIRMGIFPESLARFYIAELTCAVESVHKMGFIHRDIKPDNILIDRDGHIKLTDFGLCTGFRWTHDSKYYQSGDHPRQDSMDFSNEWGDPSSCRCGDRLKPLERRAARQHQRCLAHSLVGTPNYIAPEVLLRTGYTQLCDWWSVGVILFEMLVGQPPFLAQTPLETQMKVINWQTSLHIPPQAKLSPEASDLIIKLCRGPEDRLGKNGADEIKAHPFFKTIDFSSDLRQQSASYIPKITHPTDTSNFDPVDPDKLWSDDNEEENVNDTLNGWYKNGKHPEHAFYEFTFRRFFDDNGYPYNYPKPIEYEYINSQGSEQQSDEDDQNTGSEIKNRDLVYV

[3] = target: Serine/threonine-protein kinase WNK1 (Homo sapiens) (UniProt Q9H4A3); experiment: Inhibition of human WNK1 assessed as enzyme activity at 1 uM using myelin basic protein as substrate preincubated for 20 mins followed by [gamma-33P]-ATP addition and measured after 120 mins by radiometric Hot-SpotSM Kinase assay relative to control
[4] = target: T3, Tyrosine-protein kinase Mer (Homo sapiens) (UniProt Q12866); experiment: Inhibition of human c-MER assessed as enzyme activity at 1 uM using poly[Glu:Tyr] (4:1) as substrate preincubated for 20 mins followed by [gamma-33P]-ATP addition and measured after 120 mins by radiometric Hot-SpotSM Kinase assay relative to control
T3 sequence (whole entry): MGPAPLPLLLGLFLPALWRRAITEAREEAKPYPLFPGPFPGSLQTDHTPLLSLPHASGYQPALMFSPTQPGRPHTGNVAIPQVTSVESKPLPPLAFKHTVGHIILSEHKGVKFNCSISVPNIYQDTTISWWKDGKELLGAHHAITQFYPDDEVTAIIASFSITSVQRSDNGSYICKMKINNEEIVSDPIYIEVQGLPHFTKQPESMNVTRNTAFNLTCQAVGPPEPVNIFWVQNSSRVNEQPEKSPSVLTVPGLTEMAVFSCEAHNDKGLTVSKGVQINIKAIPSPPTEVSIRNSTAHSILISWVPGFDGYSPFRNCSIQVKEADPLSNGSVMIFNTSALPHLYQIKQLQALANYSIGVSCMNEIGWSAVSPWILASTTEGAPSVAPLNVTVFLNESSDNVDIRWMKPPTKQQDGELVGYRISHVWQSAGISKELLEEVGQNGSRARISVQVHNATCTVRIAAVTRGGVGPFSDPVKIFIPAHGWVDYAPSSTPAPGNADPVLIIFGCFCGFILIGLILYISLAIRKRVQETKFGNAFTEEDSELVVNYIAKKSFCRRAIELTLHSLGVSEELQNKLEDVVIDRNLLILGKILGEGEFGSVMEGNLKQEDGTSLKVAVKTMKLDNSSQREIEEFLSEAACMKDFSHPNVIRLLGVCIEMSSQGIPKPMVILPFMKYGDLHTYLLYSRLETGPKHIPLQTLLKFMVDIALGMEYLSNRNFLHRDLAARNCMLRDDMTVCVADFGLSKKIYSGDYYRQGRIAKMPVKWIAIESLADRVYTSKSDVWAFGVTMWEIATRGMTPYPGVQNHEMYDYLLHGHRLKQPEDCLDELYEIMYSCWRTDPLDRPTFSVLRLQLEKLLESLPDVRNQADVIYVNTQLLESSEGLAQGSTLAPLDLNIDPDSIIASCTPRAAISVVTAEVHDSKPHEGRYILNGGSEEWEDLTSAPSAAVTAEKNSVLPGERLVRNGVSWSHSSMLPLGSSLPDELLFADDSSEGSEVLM

[5] = target: Receptor tyrosine-protein kinase erbB-4 (Homo sapiens) (UniProt Q15303); experiment: Inhibition of human ERBB4 assessed as enzyme activity at 1 uM using poly[Glu:Tyr] (4:1) as substrate preincubated for 20 mins followed by [gamma-33P]-ATP addition and measured after 120 mins by radiometric Hot-SpotSM Kinase assay relative to control
Sequence of Receptor tyrosine-protein kinase erbB-4 (Homo sapiens) (Q15303 whole entry): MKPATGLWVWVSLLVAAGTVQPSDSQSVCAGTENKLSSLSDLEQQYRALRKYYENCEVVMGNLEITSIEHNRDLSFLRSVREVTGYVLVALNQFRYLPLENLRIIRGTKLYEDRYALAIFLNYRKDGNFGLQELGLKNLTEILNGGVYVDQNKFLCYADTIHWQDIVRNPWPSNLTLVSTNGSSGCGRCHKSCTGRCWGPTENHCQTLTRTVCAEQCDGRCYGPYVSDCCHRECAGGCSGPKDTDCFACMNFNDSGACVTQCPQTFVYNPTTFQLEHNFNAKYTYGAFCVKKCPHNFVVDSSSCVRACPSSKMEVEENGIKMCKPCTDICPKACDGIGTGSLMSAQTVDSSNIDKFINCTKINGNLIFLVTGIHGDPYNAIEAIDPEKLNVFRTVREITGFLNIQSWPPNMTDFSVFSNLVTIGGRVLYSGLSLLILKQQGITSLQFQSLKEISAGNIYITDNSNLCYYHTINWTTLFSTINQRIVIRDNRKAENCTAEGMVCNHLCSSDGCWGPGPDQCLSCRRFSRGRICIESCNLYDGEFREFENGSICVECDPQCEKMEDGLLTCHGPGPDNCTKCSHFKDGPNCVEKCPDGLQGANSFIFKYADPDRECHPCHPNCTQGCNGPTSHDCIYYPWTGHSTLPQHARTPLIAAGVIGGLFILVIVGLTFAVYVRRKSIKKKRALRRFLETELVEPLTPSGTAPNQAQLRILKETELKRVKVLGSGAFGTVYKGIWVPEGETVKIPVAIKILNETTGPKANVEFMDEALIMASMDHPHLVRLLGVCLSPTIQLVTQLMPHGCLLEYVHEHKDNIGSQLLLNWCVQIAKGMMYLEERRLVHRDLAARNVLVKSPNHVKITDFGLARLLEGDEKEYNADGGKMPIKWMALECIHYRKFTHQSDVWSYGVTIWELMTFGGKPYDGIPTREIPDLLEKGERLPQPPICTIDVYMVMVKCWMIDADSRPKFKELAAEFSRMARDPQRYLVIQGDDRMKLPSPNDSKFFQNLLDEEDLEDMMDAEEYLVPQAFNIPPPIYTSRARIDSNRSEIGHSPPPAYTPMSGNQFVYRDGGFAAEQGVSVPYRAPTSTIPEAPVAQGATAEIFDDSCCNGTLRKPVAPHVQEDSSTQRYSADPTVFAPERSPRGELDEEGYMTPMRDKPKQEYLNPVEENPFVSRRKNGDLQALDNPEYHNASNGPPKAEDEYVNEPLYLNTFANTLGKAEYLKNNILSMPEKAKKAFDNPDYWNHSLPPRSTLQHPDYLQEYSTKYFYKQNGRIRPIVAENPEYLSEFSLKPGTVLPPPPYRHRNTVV

Sequence of Serine/threonine-protein kinase WNK1 (Homo sapiens) (Q9H4A3 whole entry, looked up): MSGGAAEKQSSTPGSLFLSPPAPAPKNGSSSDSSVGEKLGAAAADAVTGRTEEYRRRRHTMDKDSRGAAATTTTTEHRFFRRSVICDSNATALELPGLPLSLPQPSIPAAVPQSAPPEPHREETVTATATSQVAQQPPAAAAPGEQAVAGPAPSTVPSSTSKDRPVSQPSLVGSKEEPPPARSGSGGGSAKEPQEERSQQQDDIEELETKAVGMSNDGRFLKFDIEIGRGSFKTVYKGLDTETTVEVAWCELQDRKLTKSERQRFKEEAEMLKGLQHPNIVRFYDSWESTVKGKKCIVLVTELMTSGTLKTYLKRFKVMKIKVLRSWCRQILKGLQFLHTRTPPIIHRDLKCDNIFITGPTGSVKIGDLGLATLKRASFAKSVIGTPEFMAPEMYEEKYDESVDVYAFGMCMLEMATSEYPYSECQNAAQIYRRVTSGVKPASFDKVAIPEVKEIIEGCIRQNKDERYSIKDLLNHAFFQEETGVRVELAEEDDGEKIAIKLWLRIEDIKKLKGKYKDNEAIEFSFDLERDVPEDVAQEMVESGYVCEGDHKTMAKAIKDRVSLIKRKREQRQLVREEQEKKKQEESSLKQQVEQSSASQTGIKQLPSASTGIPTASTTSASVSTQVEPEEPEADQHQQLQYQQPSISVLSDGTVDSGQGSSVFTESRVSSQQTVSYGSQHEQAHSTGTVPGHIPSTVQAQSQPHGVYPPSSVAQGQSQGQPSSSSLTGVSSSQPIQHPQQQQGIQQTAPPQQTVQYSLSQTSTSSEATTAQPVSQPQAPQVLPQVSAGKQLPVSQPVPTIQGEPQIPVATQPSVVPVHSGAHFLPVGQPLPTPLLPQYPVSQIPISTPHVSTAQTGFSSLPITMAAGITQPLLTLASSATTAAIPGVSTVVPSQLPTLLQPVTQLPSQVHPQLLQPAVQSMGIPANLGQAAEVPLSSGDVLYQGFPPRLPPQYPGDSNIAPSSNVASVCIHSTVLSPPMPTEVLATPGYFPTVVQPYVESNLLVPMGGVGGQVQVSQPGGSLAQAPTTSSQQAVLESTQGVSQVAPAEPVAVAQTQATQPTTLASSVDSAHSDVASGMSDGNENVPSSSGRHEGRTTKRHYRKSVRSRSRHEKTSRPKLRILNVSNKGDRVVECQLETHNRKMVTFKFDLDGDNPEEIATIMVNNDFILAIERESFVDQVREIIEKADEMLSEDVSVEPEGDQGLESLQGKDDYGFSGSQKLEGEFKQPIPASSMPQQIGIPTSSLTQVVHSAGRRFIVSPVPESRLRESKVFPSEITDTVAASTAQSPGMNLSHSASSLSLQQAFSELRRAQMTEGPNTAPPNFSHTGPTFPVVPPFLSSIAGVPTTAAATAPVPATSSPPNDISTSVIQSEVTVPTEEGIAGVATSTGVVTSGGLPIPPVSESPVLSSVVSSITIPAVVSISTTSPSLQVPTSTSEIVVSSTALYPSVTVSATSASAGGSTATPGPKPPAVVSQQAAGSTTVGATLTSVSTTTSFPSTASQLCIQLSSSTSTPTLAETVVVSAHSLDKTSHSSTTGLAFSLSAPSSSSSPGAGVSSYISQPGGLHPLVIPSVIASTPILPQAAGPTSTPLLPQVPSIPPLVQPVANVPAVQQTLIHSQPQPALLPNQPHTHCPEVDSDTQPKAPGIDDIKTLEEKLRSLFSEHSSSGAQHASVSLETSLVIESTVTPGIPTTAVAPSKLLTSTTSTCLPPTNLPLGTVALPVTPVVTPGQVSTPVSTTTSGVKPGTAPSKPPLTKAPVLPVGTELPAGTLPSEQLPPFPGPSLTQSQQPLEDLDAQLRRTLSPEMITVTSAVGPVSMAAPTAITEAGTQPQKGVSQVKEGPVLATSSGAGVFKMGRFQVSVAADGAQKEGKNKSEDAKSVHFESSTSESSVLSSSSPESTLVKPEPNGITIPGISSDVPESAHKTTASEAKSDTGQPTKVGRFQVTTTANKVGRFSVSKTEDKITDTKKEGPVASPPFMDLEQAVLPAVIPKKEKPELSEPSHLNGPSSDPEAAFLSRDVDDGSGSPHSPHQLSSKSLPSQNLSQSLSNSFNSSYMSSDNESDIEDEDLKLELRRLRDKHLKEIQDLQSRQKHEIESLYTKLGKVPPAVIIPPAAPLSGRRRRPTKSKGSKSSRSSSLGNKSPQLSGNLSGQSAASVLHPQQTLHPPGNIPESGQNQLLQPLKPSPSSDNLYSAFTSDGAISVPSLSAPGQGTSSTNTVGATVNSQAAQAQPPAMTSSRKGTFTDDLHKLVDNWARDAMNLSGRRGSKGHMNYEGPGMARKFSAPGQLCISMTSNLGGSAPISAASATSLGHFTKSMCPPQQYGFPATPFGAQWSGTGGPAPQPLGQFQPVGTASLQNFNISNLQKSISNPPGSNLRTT

Row | Structure (SMILES) | Activity [1] [%] | Activity [2] [%] | Activity [3] [%] | Activity [4] [%] | Activity [5] [%]
1 | CC[C@H](Nc1ncnc2[nH]cnc12)c1nc2cccc(F)c2c(=O)n1-c1ccccc1 | 97.6 | 95.4 | 90.7 | 104 | 101
2 | CC(C)Oc1ccc(-c2nn([C@@H](C)c3oc4ccc(F)cc4c(=O)c3-c3cccc(F)c3)c3ncnc(N)c23)cc1F [UMBRALISIB] | 90.8 | 96.3 | 100 | 102 | 101
3 | C[C@H](Nc1ncnc2nc[nH]c12)c1cc2cccc(Cl)c2c(=O)n1-c1ccccc1 | 98.6 | 99.8 | 79.4 | 103 | 97.4
